Earlier results on one molecule are cited in patent US10647856B2, “Mold resistant formable cork” (THE BOEING COMPANY, priority 2016, dated 2020).

≈ marks a conversion by molar mass, not a printed value.

As for `O=[N+]([O-])c1ccc(O)cc1` [para-nitrophenol], the water solubility was 16 mg/mL (≈ 115 mM).
